Tests used:
Conditions in all cases: 72 h
[1] = system: Caco-2; experiment: cell viability relative to DMSO; higher = less toxic
[2] = system: Calu-3; experiment: as above
[3] = system: Vero E6; experiment: as above
[4] = system: U2OS; experiment: as above
[5] = system: HepG2; experiment: as above
[6] = system: Caco-2; experiment: drug sensitivity score (DSS) for viability; higher = more toxic; extreme values may be limits of the assay
[7] = system: Calu-3; experiment: as above
[8] = system: Vero E6; experiment: as above
[9] = system: U2OS; experiment: as above
[10] = system: HepG2; experiment: as above
[11] = system: Caco-2; experiment: relative viability EC50 (midpoint between 100% and the lowest measured viability); higher = less toxic
[12] = system: U2OS; experiment: as above
[13] = system: HepG2; experiment: as above
[14] = system: Calu-3; experiment: as above
[15] = system: Vero E6; experiment: as above

| Compound | cell viability ([1]; 1 nM) [%] | cell viability ([1]; 10 nM) [%] | cell viability ([1]; 100 nM) [%] | cell viability ([1]; 1000 nM) [%] | cell viability ([1]; 10000 nM) [%] | cell viability ([2]; 1 nM) [%] | cell viability ([2]; 10 nM) [%] | cell viability ([2]; 100 nM) [%] | cell viability ([2]; 1000 nM) [%] | cell viability ([2]; 10000 nM) [%] | cell viability ([3]; 1 nM) [%] | cell viability ([3]; 10 nM) [%] | cell viability ([3]; 100 nM) [%] | cell viability ([3]; 1000 nM) [%] | cell viability ([3]; 10000 nM) [%] | cell viability ([4]; 1 nM) [%] | cell viability ([4]; 10 nM) [%] | cell viability ([4]; 100 nM) [%] | cell viability ([4]; 1000 nM) [%] | cell viability ([4]; 10000 nM) [%] | cell viability ([5]; 1 nM) [%] | cell viability ([5]; 10 nM) [%] | cell viability ([5]; 100 nM) [%] | cell viability ([5]; 1000 nM) [%] | cell viability ([5]; 10000 nM) [%] | drug sensitivity score [6] | drug sensitivity score [7] | drug sensitivity score [8] | drug sensitivity score [9] | drug sensitivity score [10] | relative viability EC50 [11] [µM] | relative viability EC50 [12] [µM] | relative viability EC50 [13] [µM] | relative viability EC50 [14] [µM] | relative viability EC50 [15] [µM] |
| --- | --- | --- | --- | --- | --- | --- | --- | --- | --- | --- | --- | --- | --- | --- | --- | --- | --- | --- | --- | --- | --- | --- | --- | --- | --- | --- | --- | --- | --- | --- | --- | --- | --- | --- | --- |
| COC(=O)Nc1ccc(-c2nc(N3CCOCC3)c3cnn(C4CCN(C(=O)OC)CC4)c3n2)cc1 [WYE-354] | 98.3 | 99.3 | 97.3 | 83.1 | 48.3 | 93.6 | 91.4 | 95.8 | 92.2 | 52.2 | 97.4 | 99.7 | 91.8 | 96.4 | 64.8 | 99.3 | 98.3 | 104 | 98.6 | 84.8 | 104 | 107 | 94.8 | 102 | 44.8 | 5 | 3.8 | 2.2 | 0.4 | 2.8 | 1.38 | > 10 | 3.34 | – | – |
| CC1=C(C(=O)OC(C)C)C(c2cccc([N+](=O)[O-])c2)C(C(=O)OC2CN(C(c3ccccc3)c3ccccc3)C2)=C(N)N1 (centres undefined) [azelnidipine] | 89 | 94.8 | 100 | 87.1 | 87.6 | 92.8 | 106 | 101 | 96.8 | 109 | 91.4 | 97.5 | 92.1 | 96.2 | 88.1 | 101 | 97.5 | 98.3 | 98.1 | 90.4 | – | – | – | – | – | 0 | 0 | 0 | 0 | – | > 10 | > 10 | – | > 10 | > 10 |
| CCN(CCO)CCCOc1ccc2c(Nc3cc(CC(=O)Nc4cccc(F)c4)[nH]n3)ncnc2c1 [barasertib-HQPA] | 93 | 100 | 78.4 | 91.6 | 88.4 | 95.1 | 93 | 97.2 | 92.6 | 94.2 | 93.8 | 96 | 98.2 | 91 | 88.2 | 94.4 | 95.8 | 93.7 | 91.7 | 87 | 99.5 | 99.7 | 77.8 | 72.8 | 78.8 | 0.6 | 0 | 0 | 0 | 6.9 | > 10 | > 10 | – | > 10 | > 10 |
| O=c1[nH]c(=O)n([C@H]2C[C@H](O)[C@@H](CO)O2)cc1Br [broxuridine] | 96 | 85.3 | 91.6 | 94.4 | 106 | 94.2 | 86.5 | 102 | 95.9 | 101 | 110 | 107 | 99 | 97.8 | 79 | 100 | 98 | 100 | 96.4 | 97.5 | 97 | 97.1 | 98.1 | 95.3 | 66.7 | 0 | 0 | 1 | 0 | 2.3 | > 10 | > 10 | – | > 10 | > 10 |
| CCCCc1nc(Cl)c(C(=O)O)n1Cc1ccc(-c2ccccc2-c2nn[nH]n2)cc1 [carboxylosartan] | 96.6 | 98.8 | 95.5 | 100 | 96.9 | – | – | – | – | – | 103 | 109 | 98.3 | 104 | 96.5 | 103 | 102 | 101 | 98.7 | 102 | 99.6 | 102 | 94.5 | 113 | 95.7 | 0 | – | 0 | 0 | 0 | > 10 | > 10 | > 10 | – | > 10 |
| CCCCCCOC(=O)NC(=N)c1ccc(NCc2nc3cc(C(=O)N(CCC(=O)OCC)c4ccccn4)ccc3n2C)cc1 [dabigatran-etexilate] | 96.5 | 88.5 | 104 | 93.8 | 78.1 | 101 | 82.3 | 109 | 103 | 84.3 | 97.8 | 103 | 99.4 | 102 | 108 | 97.7 | 92.9 | 101 | 95.9 | 96.9 | 91.6 | 106 | 88.9 | 116 | 72.7 | 1.5 | 0.1 | 0 | 0 | 0.7 | > 10 | > 10 | – | > 10 | > 10 |
| Cc1cc(N)c2ccccc2[n+]1CCCCCCCCCC[n+]1c(C)cc(N)c2ccccc21 [dequalinium] | 96.9 | 94.4 | 98.9 | 92.2 | 36.4 | 101 | 92.7 | 104 | 107 | 73.5 | 101 | 104 | 104 | 102 | 87.4 | 104 | 102 | 96.2 | 102 | 60.1 | 98.6 | 100 | 92.7 | 76.2 | 33.8 | 4.8 | 0.8 | 0 | 1.8 | 6.4 | 2.16 | – | 1.38 | – | > 10 |
| C/C1=C/C[C@@H](/C(C)=C/c2csc(C)n2)OC(=O)C[C@H](O)C(C)(C)C(=O)[C@H](C)[C@@H](O)[C@@H](C)CCC1 [epothilone-D] | 101 | 83.1 | 53.9 | 46.3 | 56.9 | 110 | 84 | 61.9 | 55.2 | 54.1 | 99.8 | 83.9 | 45.1 | 25.3 | 46.8 | 97.6 | 53.1 | 29.5 | 23.2 | 41.5 | 91.8 | 50.6 | 22.2 | 15.8 | 22.2 | 17.4 | 14.8 | 21.5 | 29.4 | 31.7 | 0.0202 | 0.0075 | 0.0074 | – | 0.0363 |
| CCCCc1ncc(/C=C(\Cc2cccs2)C(=O)O)n1Cc1ccc(C(=O)O)cc1 [eprosartan] | 98.1 | 106 | 105 | 110 | 103 | 93.8 | 94.9 | 101 | 106 | 109 | 104 | 97.7 | 100 | 97.1 | 101 | 100 | 101 | 99.3 | 102 | 95.9 | – | – | – | – | – | 0 | 0 | 0 | 0 | – | > 10 | > 10 | – | > 10 | > 10 |
| CC[C@@]1(O)C(=O)OCc2c1cc1n(c2=O)Cc2c-1nc1cc(F)c(C)c3c1c2[C@@H](N)CC3 [exatecan-mesylate] | 90.7 | 72.7 | 32.7 | 21 | 20.7 | – | – | – | – | – | 110 | 91.8 | 60.6 | 15.9 | 0.4 | 102 | 92 | 56.9 | 17 | 4.1 | 65.8 | 40.5 | 20.8 | 2.3 | 3.9 | 25.8 | – | 20.5 | 20.9 | 36.4 | 0.0178 | 0.127 | 0.0038 | – | 0.158 |
| O=C(CCCN1CCC(O)(c2ccc(Cl)cc2)CC1)c1ccc(F)cc1 [haloperidol] | 110 | 104 | 97.1 | 100 | 103 | 99.5 | 97.9 | 92.6 | 104 | 114 | 101 | 97.3 | 95.1 | 98.9 | 94.1 | 102 | 104 | 97.6 | 103 | 99.1 | – | – | – | – | – | 0 | 0 | 0 | 0 | – | > 10 | > 10 | – | > 10 | > 10 |
| C[C@]1(O)C[C@@H](c2nc(-c3ccc4ccc(-c5ccccc5)nc4c3)c3c(N)nccn32)C1 [linsitinib] | 96.6 | 98.9 | 84.7 | 75.7 | 47.2 | 97.7 | 104 | 101 | 116 | 104 | 99.9 | 98.9 | 104 | 96.5 | 109 | 101 | 103 | 92.7 | 82.4 | 67.9 | 90.5 | 87 | 95.2 | 62 | 54.8 | 6.3 | 0 | 0 | 3.3 | 7.5 | 0.674 | – | – | > 10 | > 10 |
| CCOC(=O)O[C@]1(C(=O)OCCl)CC[C@H]2[C@@H]3CCC4=CC(=O)C=C[C@]4(C)[C@H]3[C@@H](O)C[C@@]21C [loteprednol] | 112 | 104 | 99.1 | 92.1 | 77.9 | 98.8 | 100 | 103 | 87.7 | 95.2 | 102 | 100 | 102 | 99.2 | 96 | 105 | 102 | 100 | 93.4 | 98.1 | – | – | – | – | – | 1.6 | 0.6 | 0 | 0 | – | > 10 | > 10 | – | > 10 | > 10 |
| COC(F)(F)C(Cl)Cl [methoxyflurane] | 96.2 | 98.1 | 96.9 | 99.8 | 94.4 | – | – | – | – | – | 104 | 102 | 103 | 96.7 | 96.3 | 99.8 | 97.3 | 98.5 | 95.3 | 100 | 103 | 96.3 | 100 | 94 | 109 | 0 | – | 0 | 0 | 0 | > 10 | > 10 | > 10 | – | > 10 |
| O=C(O)c1ccccc1S [o-mercapto-benzoic-acid] | 98 | 87.2 | 86.4 | 102 | 99.4 | – | – | – | – | – | 92.2 | 97.9 | 96.2 | 105 | 106 | 97.9 | 94.1 | 95.9 | 94.8 | 109 | 99.7 | 91.5 | 89.9 | 101 | 112 | 0 | – | 0 | 0 | 0 | > 10 | > 10 | > 10 | – | > 10 |

Source: the supplement of paper PMC13380429
